pIC50: −log10 of the molar value. Like-named read-outs stand apart in the source and are kept apart here.
Assays:
[1] = test system: Human endothelial cells (EA.hy 926); experiment: DNA fragmentation in endothelial cells; assay type: cell-based
Protocol: Cell lines: Human endothelial cells (EA.Hy 926); test item: IS 181; treatment regimen: multiple additions (2)—48 hours; concentration range: 100 μg/ml to 5000 μg/ml (Duplicate wells); sera condition: medium containing 1% FBS. […] Cells were lysed and fragmented DNA was precipitated using PEG/NaCl solution. The fragmented DNA was incubated with 0.2 μg/ml of Hoechst 33258 dye and fluorescence was read at 360 ex/460 em. End point: Percentage induction of DNA fragmentation with respect to untreated. Positive control: anthralin. IS 181 led to induction of DNA fragmentation in Ea.hy.926 cells at all the concentrations tested. […] The overall effect of IS 181 on induction of DNA fragmentation with respect to untreated in Ea.hy.926 cells ranged from 15.09% to 64.15% (FIGS. 10A-10B and Table-10).

[2] = test system: Human endothelial cells (EA.hy 926); experiment: Inhibition of FBS stimulated endothelial cell proliferation (MTT); assay type: cell-based
Protocol: Cell line: Human endothelial cells (EA.hy 926); test item: IS 181: treatment regimen: multiple additions (3)-72 hours; concentration range: 1 6 g/ml to 5000 6 g/ml (triplicate wells); sera condition: medium containing 10% FBS. […] The cells were then subjected to complete serum starvation. The cells were retreated with 10% FBS to stimulate cellular proliferation. […] Inhibition of FBS stimulated cell proliferation was measured using MTT assay. End point: percentage inhibition of FBS stimulated cell proliferation. Positive controls: anthralin; paclitaxel.

Caspase-3 enzyme = experiment: Caspase-3 assay; assay type: cell-based, Human; details: HaCaT, 0.1 μM
Protocol: Cell lines: Human Keratinocytes (HaCaT); Test Item (TI): IS 181; Treatment regimen: Multiple additions (2)—48 hours; Concentration range: 100 μg/ml to 5000 μg/ml (Duplicate wells); Sera Condition: Medium containing 1% FBS. […] Cells were lysed and protein was estimated. The above lysates were processed further for Caspase-3 enzyme activity assay using colorimetric based method. Percentage induction of Caspase-3 enzyme activation with respect to untreated; Positive control: Anthralin. IS 181 led to induction of Caspase-3 enzyme activation in HaCaT cells at all the concentrations tested except at 100 μg/ml. […] (FIGS. 7A-7B)

[3] = test system: Human Keratinocytes (HaCaT); experiment: In vitro combination Anthralin and IS 181 (MTT); assay type: cell-based; details: Homo sapiens, 72 h, read-out: IC 50 value of Anthralin
Protocol: (§1) Percentage cytotoxicity was determined using MTT assay.

[4] = In vitro combination Anthralin and IS 181 (MTT); assay type: cell-based, Human; details: human, HaCaT keratinocytes, read-out: percent inhibition of cell viability/cytotoxicity
Protocol: as §1

[5] = test system: Human Keratinocytes (HaCaT); experiment: DNA fragmentation assay in HaCaT; assay type: cell-based
Protocol: Cells were lysed and fragmented DNA was precipitated using PEG/NaCl solution. The fragmented DNA was incubated with 0.2 μg/ml of Hoechst 33258 dye and fluorescence was read at 360 ex/460 em. End point: Percentage induction of DNA fragmentation with respect to untreated Positive control. Anthralin. IS 181 led to induction of DNA fragmentation in HaCaT cells at all the concentrations tested except at 100 μg/ml. […] The overall effect of IS 181 on induction of DNA fragmentation with respect to untreated in HaCaT cells ranged from −18.8% to 83.3%. (FIG. 8 and Table-6).

What does the source list for O=C1c2c(O)cccc2Cc2cccc(O)c21 [Anthralin, reference compound]?
% induction of DNA fragmentation ([1]; EA.hy926, 0.1 μM): 3.77%; % induction of DNA fragmentation ([1]; EA.hy926, 0.5 μM): 13.21%; Absorbance (Mean ± SD) at 540 nm ([2]; EA.hy926, 0.01 μM): 0.46 ± 0.025; Absorbance (Mean ± SD) at 540 nm ([2]; EA.hy926, 0.1 μM): 0.45 ± 0.018; Absorbance (Mean ± SD) at 540 nm ([2]; EA.hy926, 0.5 μM): 0.42 ± 0.013; inhibition at 0.01 µM ([2]; Homo sapiens, EA.hy 926, EA.hy926, 0.01 μM, read-out: ¾ Inhibition of FBS stimulated cell growth): 7.21%; inhibition at 0.1 µM ([2]; Homo sapiens, EA.hy 926, EA.hy926, 0.1 μM, read-out: ¾ Inhibition of FBS stimulated cell growth): 14.6%; inhibition at 0.5 µM ([2]; Homo sapiens, EA.hy 926, EA.hy926, 0.5 μM, read-out: ¾ Inhibition of FBS stimulated cell growth): 20.4%; Percentage induction of caspase-3 enzyme activation with respect to untreated (Caspase-3 enzyme): 101.85; pIC50 ([3]; IS 181 0 μg/ml): 6.25; pIC50 ([3]; with IS 181 10 μg/ml): 6.20; pIC50 ([3]; with IS 181 50 μg/ml): 6.23; pIC50 ([3]; with IS 181 100 μg/ml): 6.28; pIC50 ([3]; with IS 181 500 μg/ml): 7.01; pIC50 ([3]; with IS 181 1000 μg/ml): 7.57; pIC50 ([3]; with IS 181 2000 μg/ml): 10.00; cytotoxicity at 72 h, 0.01 µM ([4]; Anthralin 0.01 μM alone): 0.75%; cytotoxicity at 72 h, 0.05 µM ([4]; Anthralin 0.05 μM alone): -2.45%; cytotoxicity at 72 h, 0.1 µM ([4]; Anthralin 0.1 μM alone): 9.41%; cytotoxicity at 72 h, 0.5 µM ([4]; Anthralin 0.5 μM alone): 41.3%; cytotoxicity at 72 h, 1 µM ([4]; Anthralin 1 μM alone): 78.9%; cytotoxicity at 72 h, 5 µM ([4]; Anthralin 5 μM alone): 87.9%; % induction of DNA fragmentation ([5]; 0.1 μM): 60.42%; % induction of DNA fragmentation ([5]; 0.5 μM): 168.75%
